The record followed here is patent US20230391770A1, “METTL3 INHIBITORY COMPOUNDS” (Storm Therapeutics Limited, priority 2020, published 2023).

For one test, the target named is METTL3/14 (Homo sapiens (Human), UniProt Q86U44). Nature of the test: METTL3/14 methyltransferase biochemical assay (RapidFire mass spectrometry, METTL3_14 RFMS).
METTL3/14, sequence (Q86U44 whole entry): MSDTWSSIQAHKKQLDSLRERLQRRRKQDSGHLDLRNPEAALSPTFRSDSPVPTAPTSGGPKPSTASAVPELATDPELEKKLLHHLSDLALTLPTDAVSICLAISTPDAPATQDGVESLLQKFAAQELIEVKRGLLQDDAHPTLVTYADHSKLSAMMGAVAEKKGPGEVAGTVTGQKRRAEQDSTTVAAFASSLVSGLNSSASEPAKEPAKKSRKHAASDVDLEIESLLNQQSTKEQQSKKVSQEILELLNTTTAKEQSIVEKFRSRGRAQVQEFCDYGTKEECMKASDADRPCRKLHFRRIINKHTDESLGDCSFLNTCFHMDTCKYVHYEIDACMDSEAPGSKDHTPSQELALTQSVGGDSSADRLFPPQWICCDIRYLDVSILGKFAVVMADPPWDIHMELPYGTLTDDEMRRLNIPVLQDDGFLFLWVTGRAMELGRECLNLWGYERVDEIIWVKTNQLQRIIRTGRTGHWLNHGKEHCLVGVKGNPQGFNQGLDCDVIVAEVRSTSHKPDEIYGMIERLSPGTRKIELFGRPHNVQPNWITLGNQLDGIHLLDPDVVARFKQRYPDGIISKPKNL
METTL3/14, sequence (Q9HCE5 whole entry partner): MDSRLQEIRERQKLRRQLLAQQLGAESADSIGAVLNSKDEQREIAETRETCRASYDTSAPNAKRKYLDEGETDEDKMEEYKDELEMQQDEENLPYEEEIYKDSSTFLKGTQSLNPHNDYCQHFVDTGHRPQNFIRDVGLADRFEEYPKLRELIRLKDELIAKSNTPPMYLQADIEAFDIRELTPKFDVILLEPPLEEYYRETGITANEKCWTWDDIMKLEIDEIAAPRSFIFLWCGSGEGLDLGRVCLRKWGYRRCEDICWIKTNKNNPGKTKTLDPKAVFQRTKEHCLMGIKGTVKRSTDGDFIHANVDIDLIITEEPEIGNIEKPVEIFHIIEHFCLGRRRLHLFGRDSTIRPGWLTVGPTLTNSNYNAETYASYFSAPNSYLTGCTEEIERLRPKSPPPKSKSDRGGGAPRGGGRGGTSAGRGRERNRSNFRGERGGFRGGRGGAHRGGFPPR
Details: not given
Here is the method:
The enzymatic assay was established to determine IC50 values for inhibition of RNA methyltransferase activity. The enzyme used was full-length his-tagged METTL3 co-expressed with full length FLAG-tagged METTL14 in a baculovirus expression system. […] The reaction was incubated for further 60 minutes at room temperature, and then quenched by the addition of 40 μL 7.5% TCA with two internal product standards (D4-SAH and ^13C10-SAH). After termination, plates were sealed, centrifuged and stored at 4° C. until analysis. […] RNA methyltransferase activity was measured label free using the RapidFireTM mass spectrometry (RF/MS) platform. Stopped and stable assay plates were analyzed on the Agilent RF300 integrated autosampler/solid-phase extraction (SPE) system coupled to an ABSciex 4000 mass spectrometer for the generation of the product S-adenosyl homocysteine (SAH) and normalized to the ratio of signal of the two internal product standards, respectively. Solvent A was water containing 0.1% (v/v) TCA. Solvent B was acetonitrile/0.1% ammonium acetate (8:2, v/v).
Consider `Cc1nc(C(=O)NCc2cn3cc(CNCC4CCCCC4)ccc3n2)cc(=O)n1C` [Example 2, N-[(6-{[(cyclohexylmethyl)amino]methyl}imidazo[1,2-a]pyridin-2-yl)methyl]-1,2-dimethyl-6-oxo-1,6-dihydropyrimidine-4-carboxamide], for which the IC50 was 0.719 µM. This counts as sub-micromolar.

Take `O=C(NCc1cn2cc(CNCC3CCCCC3)ccc2n1)c1cnc2ccccc2n1` [Example 6, N-[(6-{[(cyclohexylmethyl)amino]methyl}imidazo[1,2-a]pyridin-2-yl)methyl]quinoxaline-2-carboxamide]: half-maximal inhibition (IC50) was put at 0.151 µM. Same read-out and setting: under `O=C(NCc1cn2cc(CNCC3CCCCC3)ccc2n1)c1ccnc2[nH]ncc12` [Example 7, N-[(6-{[(cyclohexylmethyl)amino]methyl}imidazo[1,2-a]pyridin-2-yl)methyl]-1H-pyrazolo[3,4-b]pyridine-4-carboxamide] stands 1.4 µM; under `O=C(NCc1cn2cc(CNCC3CCC3)ccc2n1)c1cccn2cncc12` [Example 10, N-[(6-{[(cyclobutylmethyl)amino]methyl}imidazo[1,2-a]pyridin-2-yl)methyl]imidazo[1,5-a]pyridine-8-carboxamide], 0.0365 µM. The same measure, in the same setting: under `O=C(NCc1cn2cc(CNCC3CCC3)ccc2n1)c1cccc2cncn12` [Example 11, N-[(6-{[(cyclobutylmethyl)amino]methyl}imidazo[1,2-a]pyridin-2-yl)methyl]imidazo[1,5-a]pyridine-5-carboxamide] stands 0.104 µM; under `O=C(NCc1cn2cc(CNCC3CCC3)ccc2n1)c1cnc2[nH]cnc2c1` [Example 13, N-[(6-{[(cyclobutylmethyl)amino]methyl}imidazo[1,2-a]pyridin-2-yl)methyl]-3H-imidazo[4,5-b]pyridine-6-carboxamide], 1.07 µM; under `O=C(NCc1cn2cc(CNCC3CCC3)ccc2n1)c1cnc2[nH]ccc2c1` [Example 14, N-[(6-{[(cyclobutylmethyl)amino]methyl}imidazo[1,2-a]pyridin-2-yl)methyl]-1H-pyrrolo[2,3-b]pyridine-5-carboxamide], 0.0145 µM. The same measure, in the same setting: under `O=C(NCc1cn2cc(CNCC3CC(F)(F)C3)ccc2n1)c1cnc2[nH]ccc2c1` [Example 15, N-{[6-({[(3,3-difluorocyclobutyl)methyl]amino}methyl)imidazo[1,2-a]pyridin-2-yl]methyl}-1H-pyrrolo[2,3-b]pyridine-5-carboxamide] stands 0.0273 µM; under `Cn1ccc2cc(C(=O)NCc3cn4cc(CNCC5CCC5)ccc4n3)cnc21` [Example 16, N-[(6-{[(cyclobutylmethyl)amino]methyl}imidazo[1,2-a]pyridin-2-yl)methyl]-1-methyl-1H-pyrrolo[2,3-b]pyridine-5-carboxamide], 1.6 µM. With `O=C(NCc1cn2cc(CNCC3CCC3)ccc2n1)c1ccc2[nH]ccc2c1` [Example 17, N-[(6-{[(cyclobutylmethyl)amino]methyl}imidazo[1,2-a]pyridin-2-yl)methyl]-1H-indole-5-carboxamide], the IC50 amounted to 3.82 µM. Same read-out and setting: under `O=C(NCc1cn2cc(CNCC3CCC3)ccc2n1)c1cnc2[nH]ccc2n1` [Example 18, N-[(6-{[(cyclobutylmethyl)amino]methyl}imidazo[1,2-a]pyridin-2-yl)methyl]-5H-pyrrolo[2,3-b]pyrazine-2-carboxamide] stands 0.0141 µM; under `Clc1cc(-c2cn(Cc3cn4cc(CNCC5CCC5)ccc4n3)nn2)c2cncn2c1` [Example 24, ({2-[(4-{6-chloroimidazo[1,5-a]pyridin-8-yl}-1H-1,2,3-triazol-1-yl)methyl]imidazo[1,2-a]pyridin-6-yl}methyl)(cyclobutylmethyl)amine], 0.0061 µM; under `c1cc(-c2cn(Cc3cn4cc(CNCC5CCC5)ccc4n3)nn2)c2nncn2c1` [Example 27, (cyclobutylmethyl)({2-[(4-{[1,2,4]triazolo[4,3-a]pyridin-8-yl}-1H-1,2,3-triazol-1-yl)methyl]imidazo[1,2-a]pyridin-6-yl}methyl)amine], 0.236 µM. Still for that read-out and setting: under `c1ccc2c(-c3cn(Cc4cn5cc(CN(CC6CCC6)CC6CCC6)ccc5n4)nn3)cncc2c1` [Example 32, bis(cyclobutylmethyl)[(2-{[4-(isoquinolin-4-yl)-1H-1,2,3-triazol-1-yl]methyl}imidazo[1,2-a]pyridin-6-yl)methyl]amine] stands 1.26 µM; under `c1cc2cc(-c3cn(Cc4cn5cc(CNCC6CCC6)ccc5n4)cn3)cnc2[nH]1` [Example 34, (cyclobutylmethyl)({2-[(4-{1H-pyrrolo[2,3-b]pyridin-5-yl}-1H-imidazol-1-yl)methyl]imidazo[1,2-a]pyridin-6-yl}methyl)amine], 0.00934 µM; under `Cc1ncc2c(-c3cn(Cc4cn5cc(CNCC67CC(F)(C6)C7)ccc5n4)nn3)cccn12` [Example 36, ({3-fluorobicyclo[1.1.1]pentan-1-yl}methyl)({2-[(4-{3-methylimidazo[1,5-a]pyridin-8-yl}-1H-1,2,3-triazol-1-yl)methyl]imidazo[1,2-a]pyridin-6-yl}methyl)amine], 0.105 µM. The compound `COc1cnc(C#N)c(-c2cn(Cc3cn4cc(CNCC56CC(C5)C6)ccc4n3)nn2)c1` [Example 37, 3-{1-[(6-{[({bicyclo[1.1.1]pentan-1-yl}methyl)amino]methyl}imidazo[1,2-a]pyridin-2-yl)methyl]-1H-1,2,3-triazol-4-yl}-5-methoxypyridine-2-carbonitrile] registered an IC50 of 0.0112 µM. Same read-out and setting: under `COc1cnc(C#N)c(-c2cn(Cc3cn4cc(CNCC5CCC5)ccc4n3)nn2)c1` [Example 38, 3-{1-[(6-{[(cyclobutylmethyl)amino]methyl}imidazo[1,2-a]pyridin-2-yl)methyl]-1H-1,2,3-triazol-4-yl}-5-methoxypyridine-2-carbonitrile] stands 0.057 µM. On the same count and under the same terms, under `COc1cnc(C#N)c(-c2cn(Cc3cn4cc(CN5CCC6(CCC6)C5)ccc4n3)nn2)c1` [Example 40, 3-(1-{[6-({6-azaspiro[3.4]octan-6-yl}methyl)imidazo[1,2-a]pyridin-2-yl]methyl}-1H-1,2,3-triazol-4-yl)-5-methoxypyridine-2-carbonitrile] stands 0.076 µM; under `N#Cc1ncc(F)cc1-c1cn(Cc2cn3cc(CN4CCC5(CCC5)C4)ccc3n2)nn1` [Example 42, 3-(1-{[6-({6-azaspiro[3.4]octan-6-yl}methyl)imidazo[1,2-a]pyridin-2-yl]methyl}-1H-1,2,3-triazol-4-yl)-5-fluoropyridine-2-carbonitrile], 1.18 µM; under `N#Cc1ncc(F)cc1-c1cn(Cc2cn3cc(CNCC45CC(F)(C4)C5)ccc3n2)nn1` [Example 43, 5-fluoro-3-{1-[(6-{[({3-fluorobicyclo[1.1.1]pentan-1-yl}methyl)amino]methyl}imidazo[1,2-a]pyridin-2-yl)methyl]-1H-1,2,3-triazol-4-yl}pyridine-2-carbonitrile], 0.235 µM. Same read-out and setting: under `COc1cncc(C(=O)NCc2cn3cc(CNCC4CCC4)ccc3n2)c1` [Example 46, N-[(6-{[(cyclobutylmethyl)amino]methyl}imidazo[1,2-a]pyridin-2-yl)methyl]-5-methoxypyridine-3-carboxamide] stands 0.074 µM.

Compound `COc1cnc(C(N)=O)c(-c2cn(Cc3cn4cc(CNCC56CC(F)(C5)C6)ccc4n3)nn2)c1` [Example 49, 3-{1-[(6-{[({3-fluorobicyclo[1.1.1]pentan-1-yl}methyl)amino]methyl}imidazo[1,2-a]pyridin-2-yl)methyl]-1H-1,2,3-triazol-4-yl}-5-methoxypyridine-2-carboxamide] yielded an IC50 of 0.085 µM.

Staying with this test, now noted: inhibition of RNA methyltransferase activity; 5 nM METTL3/14, 0.2 μM RNA substrate, 0.5 μM SAM; lower limit of the assay IC50=5 nM.
`O=C(NCc1cn2cc(CNCC3CCCCC3)ccc2n1)c1cnc2ccccc2c1` [Example 8, N-[(6-{[(cyclohexylmethyl)amino]methyl}imidazo[1,2-a]pyridin-2-yl)methyl]quinoline-3-carboxamide] had an IC50 of 1.19 µM.

Compound `Cc1ccc2nc(CNC(=O)c3nccc4[nH]ncc34)cn2c1` [Reference Example 1, N-({6-methylimidazo[1,2-a]pyridin-2-yl}methyl)-1H-pyrazolo[4,3-c]pyridine-4-carboxamide] registered an IC50 of 5.34 µM.

The test system of the next test is Caov-3 cells. Kind of test: Caov3 CTG proliferation assay (CellTiter-Glo). The test is classed as cell-based. Conditions: Homo sapiens, 120 hours treatment, 30 μM top concentration. The procedure:
Cell treatment and cell growth assessment: 18 hours post-seeding in white 384-Viewplate (6007480, PerkinElmer) at 1500 cells/well, Caov3 cells were treated for 120 hours with compounds inhibiting the METTL3/14 activity (10 serial semi-log dilutions, 30 μM as top concentration). Upon treatment, Coav-3 cells were incubated for 10 min at RT with the CellTiter-Glo reagent (G7571, Promega). Measurement of the luminescence signal was performed on a microplate reader (Ensight, PerkinElmer).
`O=C(NCc1cn2cc(CNCC3CCC3)ccc2n1)c1cnc2[nH]ccc2n1` [Example 18, N-[(6-{[(cyclobutylmethyl)amino]methyl}imidazo[1,2-a]pyridin-2-yl)methyl]-5H-pyrrolo[2,3-b]pyrazine-2-carboxamide] displayed an IC50 of 2.79 µM. The same measure, in the same setting: under `Clc1cc(-c2cn(Cc3cn4cc(CNCC5CCC5)ccc4n3)nn2)c2cncn2c1` [Example 24, ({2-[(4-{6-chloroimidazo[1,5-a]pyridin-8-yl}-1H-1,2,3-triazol-1-yl)methyl]imidazo[1,2-a]pyridin-6-yl}methyl)(cyclobutylmethyl)amine] stands 0.343 µM.

The compound `c1cc2cc(-c3cn(Cc4cn5cc(CNCC6CCC6)ccc5n4)cn3)cnc2[nH]1` [Example 34, (cyclobutylmethyl)({2-[(4-{1H-pyrrolo[2,3-b]pyridin-5-yl}-1H-imidazol-1-yl)methyl]imidazo[1,2-a]pyridin-6-yl}methyl)amine] had an IC50 of 1.28 µM. Against the preceding compound, the IC50 is about 3.7-fold higher.

Another test relates to KASUMI-1 cells. Kind of test: Kasumi cell assay (CellTiter-Glo cell growth). The test is classed as cell-based. As to conditions: Homo sapiens, 120 hours treatment, 30 μM top concentration. Here is the method: Cell culture: KASUMI-1 cells (ACC20, Leibniz-Institut DSMZ Deutsche Sammlung von Mikroorganismen und Zellkulturen GmbH) were grown in RPMI 1640 (31870-025, Gibco) supplemented with 20% fetal bovine serum (F1524, Gibco), 1 mM sodium pyruvate (11360-039, Gibco) and 2 mM Glutamax (35050-038, Gibco) in a 5% CO2 humidified incubator at 37° C.
Cell treatment and cell growth assessment: KASUMI-1 […] were seeded in ultra-low attachment 384-well culture plate (MS-9384WZ, SBio) at a final concentration of 250,000 cells/ml (35 μL/well) and treated for 120 hours with compounds inhibiting the METTL3/14 activity (10 serial semi-log dilutions, 30 μM as top concentration). Upon treatment, Kasumi1 cells were incubated for 10 min at RT with the CellTiter-Glo reagent (G7571, Promega). Measurement of the luminescence signal was performed on a microplate reader (Ensight, PerkinElmer).
In the case of `c1cc(-c2cn(Cc3cn4cc(CNCC5CCC5)ccc4n3)nn2)c2nncn2c1` [Example 27, (cyclobutylmethyl)({2-[(4-{[1,2,4]triazolo[4,3-a]pyridin-8-yl}-1H-1,2,3-triazol-1-yl)methyl]imidazo[1,2-a]pyridin-6-yl}methyl)amine], the IC50 was 30 µM.
